Experiments:
oat, wild [1] = experiment: Test C preemergence; type: in vivo, Avena fatua; conditions: 0 to 100 scale (0 no effect, 100 complete control); for Oat, Wild plant response rating: preemergence
Method in brief: (§1)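 Seeds sown in loam soil–sand blend received a directed preemergence soil spray of test chemical in non-phytotoxic solvent with surfactant; postemergence plants (2–10 cm, one- to two-leaf stage) were sprayed with the same formulation. Greenhouse-held 10 days, then visually rated for injury versus untreated controls, 0 (no effect) to 100 (complete control).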

soybean [2] = experiment: Test C preemergence; type: in vivo, Glycine max; conditions: 0 to 100 scale (0 no effect, 100 complete control); for Soybean plant response rating: preemergence
Method in brief: as §1

corn [3] = experiment: Test C postemergence; type: in vivo, Zea mays; conditions: 10 days
Method in brief: as §1

rice = experiment: Test D flooded paddy test; type: in vivo, Oryza sativa; conditions: 250 g ai/ha, applied to paddy water, visual rating after 13 to 14 days, scale 0 to 100 (0 no effect, 100 complete control)
Method in brief: (§2)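 Plants at the 2-leaf stage were grown in pots flooded to 3 cm, and compound was applied directly into the paddy water, with depth kept throughout. After 13–14 days in a greenhouse, injury was rated visually against untreated controls on a 0–100 scale (100 = complete control); a dash means not tested.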

pigweed, palmer [4] = experiment: Test C postemergence; type: in vivo, Amaranthus palmeri; conditions: 10 days
Method in brief: as §1

oat, wild [5] = experiment: Test C postemergence; type: in vivo, Avena fatua; conditions: 10 days
Method in brief: as §1

wheat [6] = experiment: Test C preemergence; type: in vivo, Triticum aestivum; conditions: 0 to 100 scale (0 no effect, 100 complete control); for Wheat plant response rating: preemergence
Method in brief: as §1

blackgrass [7] = experiment: Test C preemergence; type: in vivo, Alopecurus myosuroides; conditions: 0 to 100 scale (0 no effect, 100 complete control); for Blackgrass plant response rating: preemergence
Method in brief: as §1

blackgrass [8] = experiment: Test C postemergence; type: in vivo, Alopecurus myosuroides; conditions: 10 days
Method in brief: as §1

barnyardgrass [9] = experiment: Test D flooded paddy test; type: in vivo, Echinochloa crus-galli; conditions: 250 g ai/ha, applied to paddy water, visual rating after 13 to 14 days, scale 0 to 100 (0 no effect, 100 complete control)
Method in brief: as §2

ragweed [10] = experiment: Test C preemergence; type: in vivo, Ambrosia artemisiifolia; conditions: 0 to 100 scale (0 no effect, 100 complete control); for Ragweed plant response rating: preemergence
Method in brief: as §1

soybean [11] = experiment: Test C postemergence; type: in vivo, Glycine max; conditions: 10 days
Method in brief: as §1

kochia [12] = experiment: Test C postemergence; type: in vivo, Bassia scoparia; conditions: 10 days
Method in brief: as §1

barnyardgrass [13] = experiment: Test C preemergence; type: in vivo, Echinochloa crusgalli; conditions: 0 to 100 scale (0 no effect, 100 complete control); for Barnyardgrass plant response rating: preemergence
Method in brief: as §1

barnyardgrass [14] = experiment: Test C postemergence; type: in vivo, Echinochloa crusgalli; conditions: 10 days
Method in brief: as §1

sedge, umbrella = experiment: Test D flooded paddy test; type: in vivo, Cyperus difformis; conditions: 250 g ai/ha, applied to paddy water, visual rating after 13 to 14 days, scale 0 to 100 (0 no effect, 100 complete control)
Method in brief: as §2

ragweed [15] = experiment: Test C postemergence; type: in vivo, Ambrosia artemisiifolia; conditions: 10 days
Method in brief: as §1

ryegrass, Italian [16] = experiment: Test C preemergence; type: in vivo, Lolium multiflorum; conditions: 0 to 100 scale (0 no effect, 100 complete control); for Ryegrass, Italian plant response rating: preemergence
Method in brief: as §1

green foxtail [17] = experiment: Test C postemergence; type: in vivo, Setaria viridis; conditions: 10 days
Method in brief: as §1

pigweed, palmer [18] = experiment: Test C preemergence; type: in vivo, Amaranthus palmeri; conditions: 0 to 100 scale (0 no effect, 100 complete control); for Pigweed, Palmer plant response rating: preemergence
Method in brief: as §1

wheat [19] = experiment: Test C postemergence; type: in vivo, Triticum aestivum; conditions: 10 days
Method in brief: as §1

ducksalad = experiment: Test D flooded paddy test; type: in vivo, Heteranthera limosa; conditions: 250 g ai/ha, applied to paddy water, visual rating after 13 to 14 days, scale 0 to 100 (0 no effect, 100 complete control)
Method in brief: as §2

ryegrass, Italian [20] = experiment: Test C postemergence; type: in vivo, Lolium multiflorum; conditions: 10 days
Method in brief: as §1

kochia [21] = experiment: Test C preemergence; type: in vivo, Bassia scoparia; conditions: 0 to 100 scale (0 no effect, 100 complete control); for Kochia plant response rating: preemergence
Method in brief: as §1

corn [22] = experiment: Test C preemergence; type: in vivo, Zea mays; conditions: 0 to 100 scale (0 no effect, 100 complete control); for Corn plant response rating: preemergence
Method in brief: as §1

galium = experiment: Test C postemergence; type: in vivo, Galium aparine; conditions: 10 days
Method in brief: as §1

green foxtail [23] = experiment: Test C preemergence; type: in vivo, Setaria viridis; conditions: 0 to 100 scale (0 no effect, 100 complete control); for Foxtail, Green plant response rating: preemergence
Method in brief: as §1

horseweed = experiment: Test C postemergence; type: in vivo, Erigeron canadensis; conditions: 10 days
Method in brief: as §1

[24] = 500 g ai/ha, postemergence, 0 to 100 scale (0 no effect, 100 complete control)
[25] = Postemergence, 125 g ai/ha, 0 to 100 scale (0 no effect, 100 complete control)
[26] = Preemergence, 500 g ai/ha, visual rating after 10 days
[27] = 125 g ai/ha, postemergence, 0 to 100 scale, 0 no effect, 100 complete control
[28] = Postemergence, 500 g ai/ha, visual 0 to 100 scale (0 no effect, 100 complete control)

Cc1cccc2c1OC(C(F)(F)F)CN2C(=O)c1cccc(-n2cnc(C(C)C)n2)c1 (single isomer, unassigned) [Compound 303]
Oat, Wild plant response rating (oat, wild [1]; 500 g ai/ha): 90
Oat, Wild plant response rating (oat, wild [1]; Test C, 125 g ai/ha): 50
Soybean plant response rating (soybean [2]; 500 g ai/ha): 100
Soybean plant response rating (soybean [2]; Test C, 125 g ai/ha): 30
Plant response rating, Corn (corn [3]; [24]): 80
Plant response rating, Corn (corn [3]; [25]): 20
Plant response rating, Rice (Flood) (rice): 0
Plant response rating, Pigweed, Palmer (pigweed, palmer [4]; [24]): 80
Plant response rating, Pigweed, Palmer (pigweed, palmer [4]; [25]): 40
Plant response rating, Oat, Wild (oat, wild [5]; [24]): 70
Plant response rating, Oat, Wild (oat, wild [5]; [25]): 50
Wheat plant response rating (wheat [6]; 500 g ai/ha): 100
Wheat plant response rating (wheat [6]; Test C, 125 g ai/ha): 70
Blackgrass plant response rating (blackgrass [7]; 500 g ai/ha): 100
Blackgrass plant response rating (blackgrass [7]; Test C, 125 g ai/ha): 90
Plant response rating, Blackgrass (blackgrass [8]; [24]): 100
Plant response rating, Blackgrass (blackgrass [8]; [25]): 90
Plant response rating, Barnyardgrass (Flood) (barnyardgrass [9]): 0
Ragweed plant response rating (ragweed [10]; 500 g ai/ha): 70
Ragweed plant response rating (ragweed [10]; Test C, 125 g ai/ha): 0
Plant response rating, Soybean (soybean [11]; [24]): 100
Plant response rating, Soybean (soybean [11]; [25]): 100
Plant response rating, Kochia (kochia [12]; [24]): 80
Plant response rating, Kochia (kochia [12]; [25]): 70
Barnyardgrass plant response rating (barnyardgrass [13]; 500 g ai/ha): 100
Barnyardgrass plant response rating (barnyardgrass [13]; Test C, 125 g ai/ha): 40
Plant response rating, Barnyardgrass (barnyardgrass [14]; [24]): 70
Plant response rating, Barnyardgrass (barnyardgrass [14]; [25]): 20
Plant response rating, Sedge, Umbrella (Flood) (sedge, umbrella): 90
Plant response rating, Ragweed (ragweed [15]; [24]): 60
Plant response rating, Ragweed (ragweed [15]; [25]): 50
Ryegrass, Italian plant response rating (ryegrass, Italian [16]; 500 g ai/ha): 100
Ryegrass, Italian plant response rating (ryegrass, Italian [16]; Test C, 125 g ai/ha): 90
Plant response rating, Foxtail, Green (green foxtail [17]; [24]): 80
Plant response rating, Foxtail, Green (green foxtail [17]; [25]): 50
Pigweed, Palmer plant response rating (pigweed, palmer [18]; 500 g ai/ha): 100
Pigweed, Palmer plant response rating (pigweed, palmer [18]; Test C, 125 g ai/ha): 100
Plant response rating, Wheat (wheat [19]; [24]): 50
Plant response rating, Wheat (wheat [19]; [25]): 30
Plant response rating, Ducksalad (Flood) (ducksalad): 80
Plant response rating, Ryegrass, Italian (ryegrass, Italian [20]; [24]): 90
Plant response rating, Ryegrass, Italian (ryegrass, Italian [20]; [25]): 60
Kochia plant response rating (kochia [21]; 500 g ai/ha): 100
Kochia plant response rating (kochia [21]; Test C, 125 g ai/ha): 70
Corn plant response rating (corn [22]; 500 g ai/ha): 50
Corn plant response rating (corn [22]; Test C, 125 g ai/ha): 0
Plant response rating, Galium (galium; [24]): 100
Plant response rating, Galium (galium; [25]): 100
Foxtail, Green plant response rating (green foxtail [23]; 500 g ai/ha): 100
Foxtail, Green plant response rating (green foxtail [23]; Test C, 125 g ai/ha): 100
Plant response rating, Horseweed (horseweed; [24]): 20
Plant response rating, Horseweed (horseweed; [25]): 0

Cc1cccc2c1O[C@@H](C)CN2C(=O)c1cccc(-n2cnc(C#N)c2)c1 [Compound 233]
Plant response rating, Oat, Wild (oat, wild [1]; [26]): 0
Oat, Wild plant response rating (oat, wild [1]; Test C, 125 g ai/ha): 0
Plant response rating, Soybean (soybean [2]; [26]): 10
Soybean plant response rating (soybean [2]; Test C, 125 g ai/ha): 0
Plant response rating, Corn (corn [3]; [27]): 0
Plant response rating, Corn (corn [3]; [28]): 20
Plant response rating, Rice (Flood) (rice): 0
Plant response rating, Pigweed, Palmer (pigweed, palmer [4]; [27]): 0
Plant response rating, Pigweed, Palmer (pigweed, palmer [4]; [28]): 10
Plant response rating, Oat, Wild (oat, wild [5]; [27]): 0
Plant response rating, Oat, Wild (oat, wild [5]; [28]): 20
Plant response rating, Wheat (wheat [6]; [26]): 0
Wheat plant response rating (wheat [6]; Test C, 125 g ai/ha): 0
Plant response rating, Blackgrass (blackgrass [7]; [26]): 30
Blackgrass plant response rating (blackgrass [7]; Test C, 125 g ai/ha): 10
Plant response rating, Blackgrass (blackgrass [8]; [27]): 0
Plant response rating, Blackgrass (blackgrass [8]; [28]): 40
Plant response rating, Barnyardgrass (Flood) (barnyardgrass [9]): 0
Plant response rating, Ragweed (ragweed [10]; [26]): 70
Ragweed plant response rating (ragweed [10]; Test C, 125 g ai/ha): 0
Plant response rating, Soybean (soybean [11]; [27]): 70
Plant response rating, Soybean (soybean [11]; [28]): 80
Plant response rating, Kochia (kochia [12]; [27]): 0
Plant response rating, Kochia (kochia [12]; [28]): 10
Plant response rating, Barnyardgrass (barnyardgrass [13]; [26]): 60
Barnyardgrass plant response rating (barnyardgrass [13]; Test C, 125 g ai/ha): 0
Plant response rating, Barnyardgrass (barnyardgrass [14]; [27]): 10
Plant response rating, Barnyardgrass (barnyardgrass [14]; [28]): 20
Plant response rating, Sedge, Umbrella (Flood) (sedge, umbrella): 0
Plant response rating, Ragweed (ragweed [15]; [27]): 0
Plant response rating, Ragweed (ragweed [15]; [28]): 20
Plant response rating, Ryegrass, Italian (ryegrass, Italian [16]; [26]): 60
Ryegrass, Italian plant response rating (ryegrass, Italian [16]; Test C, 125 g ai/ha): 10
Plant response rating, Foxtail, Green (green foxtail [17]; [27]): 20
Plant response rating, Foxtail, Green (green foxtail [17]; [28]): 20
Plant response rating, Pigweed, Palmer (pigweed, palmer [18]; [26]): 0
Pigweed, Palmer plant response rating (pigweed, palmer [18]; Test C, 125 g ai/ha): 0
Plant response rating, Wheat (wheat [19]; [27]): 10
Plant response rating, Wheat (wheat [19]; [28]): 10
Plant response rating, Ducksalad (Flood) (ducksalad): 0
Plant response rating, Ryegrass, Italian (ryegrass, Italian [20]; [27]): 0
Plant response rating, Ryegrass, Italian (ryegrass, Italian [20]; [28]): 60
Plant response rating, Kochia (kochia [21]; [26]): 0
Kochia plant response rating (kochia [21]; Test C, 125 g ai/ha): 0
Plant response rating, Corn (corn [22]; [26]): 20
Corn plant response rating (corn [22]; Test C, 125 g ai/ha): 0
Plant response rating, Galium (galium; [27]): 50
Plant response rating, Foxtail, Green (green foxtail [23]; [26]): 80
Foxtail, Green plant response rating (green foxtail [23]; Test C, 125 g ai/ha): 0
Plant response rating, Horseweed (horseweed; [27]): 0
Plant response rating, Horseweed (horseweed; [28]): 0
